Experimental data reported in patent publication US10519134B2, “Pyrazole compounds and methods of making and using same” (Lundbeck La Jolla Research Center, Inc., priority 2015, dated 2019).

Experiments:
MAGL [1] = molecular target: T1, MAGL (Mus musculus, UniProt O35678); assay: In vitro competitive activity-based protein profiling (mouse), MAGL gel band; format: biochemical; settings: for IC50: mouse; for inhibition at 1 µM: read-out: MAGL % inh. 1 μM
T1 construct: Proteomes (mouse brain membrane fraction or cell lysates); from tissue; host or cells: mouse brain membrane fraction (or cell lysates)
T1 sequence (O35678 1-303): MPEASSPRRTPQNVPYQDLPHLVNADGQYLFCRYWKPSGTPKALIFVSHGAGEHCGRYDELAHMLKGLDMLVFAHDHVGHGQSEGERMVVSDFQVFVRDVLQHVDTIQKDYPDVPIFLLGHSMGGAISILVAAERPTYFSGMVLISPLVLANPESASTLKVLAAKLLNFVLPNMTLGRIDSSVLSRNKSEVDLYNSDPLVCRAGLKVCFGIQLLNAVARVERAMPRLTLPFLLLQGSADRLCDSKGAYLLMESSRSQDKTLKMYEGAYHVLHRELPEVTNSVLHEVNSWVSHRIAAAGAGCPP
Procedure, shortened: (§1)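 Mouse brain membrane proteome or cell lysate (1.0 mg/mL total protein) was preincubated with varying inhibitor concentrations for 30 min at 37 °C, then labelled for 30 min at 37 °C with FP-Rh or HT-01 (50 μM stock in DMSO). Activity was read as fluorescent band intensity after SDS-PAGE.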

FAAH = molecular target: T2, FAAH (Mus musculus, UniProt O08914); assay: In vitro competitive activity-based protein profiling (mouse), FAAH gel band; format: biochemical; settings: for IC50: mouse; for inhibition at 1 µM: read-out: FAAH % inh. 1 μM
T2 construct: Proteomes (mouse brain membrane fraction or cell lysates); from tissue; host or cells: mouse brain membrane fraction (or cell lysates)
T2 sequence (O08914 1-579): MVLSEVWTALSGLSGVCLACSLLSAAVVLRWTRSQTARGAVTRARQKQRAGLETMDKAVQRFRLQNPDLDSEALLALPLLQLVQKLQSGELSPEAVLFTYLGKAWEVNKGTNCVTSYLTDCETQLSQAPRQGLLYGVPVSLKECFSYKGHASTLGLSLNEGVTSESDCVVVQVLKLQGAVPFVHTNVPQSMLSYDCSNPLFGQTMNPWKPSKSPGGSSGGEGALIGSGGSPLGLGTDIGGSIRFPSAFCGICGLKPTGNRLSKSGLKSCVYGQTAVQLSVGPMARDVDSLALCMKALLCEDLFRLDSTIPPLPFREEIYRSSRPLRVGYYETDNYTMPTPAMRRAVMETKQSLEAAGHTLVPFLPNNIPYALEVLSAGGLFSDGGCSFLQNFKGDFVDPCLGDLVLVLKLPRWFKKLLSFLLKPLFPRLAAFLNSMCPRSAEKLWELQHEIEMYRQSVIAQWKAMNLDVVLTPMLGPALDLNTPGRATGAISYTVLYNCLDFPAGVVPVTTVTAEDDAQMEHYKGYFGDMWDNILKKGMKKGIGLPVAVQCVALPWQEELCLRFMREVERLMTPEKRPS
Procedure, shortened: as §1

MAGL [2] = molecular target: T1, MAGL; assay: Mouse brain proteomes from inhibitor treated mice (oral gavage, sacrificed 4 h after administration); format: in vivo; settings: read-out: MAGL % inh. 5 mg/kg
Procedure, shortened: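 Wild-type C57Bl/6J mice got compound by oral gavage in polyethylene glycol vehicle. Brain proteomes were prepared 4 h after dosing and analyzed for serine hydrolase activity.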

## CC(=O)Nc1ccn(C(=O)N2CCC3(CCCN3Cc3ccc(C(F)(F)F)cc3N3CC4COCC4C3)CC2)n1 (stereo not drawn) [Example 32, N-(1-(1-(2-(dihydro-1H-furo[3,4-c]pyrrol-5(3H,6H,6aH)-yl)-4-(trifluoromethyl)benzyl)-1,8-diazaspiro[4.5]decane-8-carbonyl)-1H-pyrazol-3-yl)acetamide]
MAGL [1]
  IC50: ≤ 100 nM
  inhibition at 1 µM: ≥ 75%
FAAH
  IC50: 1000 to 10000 nM
  inhibition at 1 µM: 0 to 25%
MAGL [2]
  inhibition at 5 mg/kg: 25 to 50%

## CC(=O)Nc1ccn(C(=O)N2CCN(Cc3ccc(Cl)cc3N3CC4COCC4C3)CC2)n1 (stereo not drawn) [Example 60, N-(1-(4-(4-chloro-2-(dihydro-1H-furo[3,4-c]pyrrol-5(3H,6H,6aH)-yl)benzyl)piperazine-1-carbonyl)-1H-pyrazol-3-yl)acetamide]
MAGL [1]
  IC50: ≤ 100 nM
  inhibition at 1 µM: ≥ 75%
FAAH
  IC50: 1000 to 10000 nM
  inhibition at 1 µM: 0 to 25%
MAGL [2]
  inhibition at 5 mg/kg: 0 to 25%

## CC(=O)Nc1ccn(C(=O)N2CCN(Cc3ccc(Cl)cc3N3CCC4(CCOCC4)C3)CC2)n1 [Example 56, N-(1-(4-(4-chloro-2-(8-oxa-2-azaspiro[4.5]decan-2-yl)benzyl)piperazine-1-carbonyl)-1H-pyrazol-3-yl)acetamide]
MAGL [1]
  IC50: ≤ 100 nM
  inhibition at 1 µM: ≥ 75%
FAAH
  IC50: 1000 to 10000 nM
  inhibition at 1 µM: 0 to 25%
MAGL [2]
  inhibition at 5 mg/kg: 25 to 50%

## CC(=O)Nc1ccn(C(=O)N2CCN(Cc3ccc(C(F)(F)F)cc3N3CCN(S(C)(=O)=O)CC3)CC2)n1 [Example 41, N-(1-(4-(2-(4-(methylsulfonyl)piperazin-1-yl)-4-(trifluoromethyl)benzyl)piperazine-1-carbonyl)-1H-pyrazol-3-yl)acetamide]
MAGL [1]
  IC50: ≤ 100 nM
  inhibition at 1 µM: ≥ 75%
FAAH
  IC50: 1000 to 10000 nM
  inhibition at 1 µM: 0 to 25%
MAGL [2]
  inhibition at 5 mg/kg: 0 to 25%

## CC(=O)Nc1ccn(C(=O)N2CCN(Cc3ccc(C(F)(F)F)cc3N3CC4COCC4C3)CC2)n1 (stereo not drawn) [Example 49, N-(1-(4-(2-(dihydro-1H-furo[3,4-c]pyrrol-5(3H,6H,6aH)-yl)-4-(trifluoromethyl)benzyl)piperazine-1-carbonyl)-1H-pyrazol-3-yl)acetamide]
MAGL [1]
  IC50: ≤ 100 nM
  inhibition at 1 µM: ≥ 75%
FAAH
  IC50: 1000 to 10000 nM
  inhibition at 1 µM: 0 to 25%
MAGL [2]
  inhibition at 5 mg/kg: 0 to 25%

## CS(=O)(=O)Nc1ccn(C(=O)N2CCN(Cc3ccc(C(F)(F)F)cc3N3CC4CCC(C3)O4)CC2)n1 [Example 130, N-(1-(4-(2-(8-oxa-3-azabicyclo[3.2.1]octan-3-yl)-4-(trifluoromethyl)benzyl)piperazine-1-carbonyl)-1H-pyrazol-3-yl) methanesulfonamide]
MAGL [1]
  IC50: ≤ 100 nM
  inhibition at 1 µM: ≥ 75%
FAAH
  IC50: 1000 to 10000 nM
  inhibition at 1 µM: 0 to 25%
MAGL [2]
  inhibition at 5 mg/kg: 50 to 75%

## CC(=O)Nc1ccn(C(=O)N2CCC3(CCCN3Cc3ccc(C(F)(F)F)cc3N3CCC4(CCOCC4)C3)CC2)n1 [Example 28, N-(1-(1-(2-(8-oxa-2-azaspiro[4.5]decan-2-yl)-4-(trifluoromethyl)benzyl)-1,8-diazaspiro[4.5]decane-8-carbonyl)-1H-pyrazol-3-yl)acetamide]
MAGL [1]
  IC50: ≤ 100 nM
  inhibition at 1 µM: ≥ 75%
FAAH
  IC50: 1000 to 10000 nM
  inhibition at 1 µM: 0 to 25%
MAGL [2]
  inhibition at 5 mg/kg: 0 to 25%

## CC(=O)Nc1ccn(C(=O)N2CCN(Cc3ccc(C(F)(F)F)cc3N3CCCCC3)CC2)n1 [Example 39, N-(1-(4-(2-(piperidin-1-yl)-4-(trifluoromethyl)benzyl)piperazine-1-carbonyl)-1H-pyrazol-3-yl)acetamide]
MAGL [1]
  IC50: ≤ 100 nM
  inhibition at 1 µM: ≥ 75%
FAAH
  IC50: 1000 to 10000 nM
  inhibition at 1 µM: 0 to 25%
MAGL [2]
  inhibition at 5 mg/kg: ≥ 75%

## CCc1cc(CN2CCCC23CCN(C(=O)n2ccc(NC(C)=O)n2)CC3)ccc1F [Example 95, N-(1-(1-(3-ethyl-4-fluorobenzyl)-1,8-diazaspiro[4.5]decane-8-carbonyl)-1H-pyrazol-3-yl)acetamide]
MAGL [1]
  IC50: ≤ 100 nM
  inhibition at 1 µM: ≥ 75%
FAAH
  IC50: 1000 to 10000 nM
  inhibition at 1 µM: 0 to 25%
MAGL [2]
  inhibition at 5 mg/kg: ≥ 75%

## CC(=O)Nc1ccn(C(=O)N2CCN(Cc3ccc(Cl)cc3N3CCCCC3)CC2)n1 [Example 50, N-(1-(4-(4-chloro-2-(piperidin-1-yl)benzyl)piperazine-1-carbonyl)-1H-pyrazol-3-yl)acetamide]
MAGL [1]
  IC50: ≤ 100 nM
  inhibition at 1 µM: ≥ 75%
FAAH
  IC50: 1000 to 10000 nM
  inhibition at 1 µM: 0 to 25%
MAGL [2]
  inhibition at 5 mg/kg: ≥ 75%

## CC(=O)Nc1ccn(C(=O)N2CCC3(CCCN3Cc3cc(N4CC5CN(C(C)=O)CC5C4)cc(C(F)(F)F)c3)CC2)n1 (stereo not drawn) [Example 69, N-(1-(1-(3-(5-acetylhexahydropyrrolo[3,4-c]pyrrol-2(1H)-yl)-5-(trifluoromethyl)benzyl)-1,8-diazaspiro[4.5]decane-8-carbonyl)-1H-pyrazol-3-yl)acetamide]
MAGL [1]
  IC50: 100 to 1000 nM
  inhibition at 1 µM: ≥ 75%
FAAH
  IC50: 1000 to 10000 nM
  inhibition at 1 µM: 0 to 25%
MAGL [2]
  inhibition at 5 mg/kg: 0 to 25%

## CS(=O)(=O)Nc1ccn(C(=O)N2CCN(Cc3cccc(Cl)c3N3CC[C@H](CF)C3)CC2)n1 [Example 121, (S)-N-(1-(4-(3-chloro-2-(3-(fluoromethyl)pyrrolidin-1-yl)benzyl)piperazine-1-carbonyl)-1H-pyrazol-3-yl) methanesulfonamide]
MAGL [1]
  IC50: ≤ 100 nM
  inhibition at 1 µM: ≥ 75%
FAAH
  IC50: 1000 to 10000 nM
  inhibition at 1 µM: 0 to 25%
MAGL [2]
  inhibition at 5 mg/kg: 50 to 75%

## CS(=O)(=O)Nc1ccn(C(=O)N2CCN(Cc3cccc(Cl)c3N3CCC4(CCOCC4)C3)CC2)n1 [Example 290, N-(1-(4-(3-chloro-2-(8-oxa-2-azaspiro[4.5]decan-2-yl)benzyl)piperazine-1-carbonyl)-1H-pyrazol-3-yl) methanesulfonamide]
MAGL [1]
  IC50: ≤ 100 nM
  inhibition at 1 µM: ≥ 75%
FAAH
  IC50: 1000 to 10000 nM
  inhibition at 1 µM: 0 to 25%
MAGL [2]
  inhibition at 5 mg/kg: 50 to 75%

## CC(=O)Nc1ccn(C(=O)N2CCN(Cc3ccc(Cl)cc3N3CCC(C(=O)O)CC3)CC2)n1 [Example 248, 1-(2-((4-(3-acetamido-1H-pyrazole-1-carbonyl)piperazin-1-yl)methyl)-5-chlorophenyl) piperidine-4-carboxylic acid]
MAGL [1]
  IC50: ≤ 100 nM
  inhibition at 1 µM: ≥ 75%
FAAH
  IC50: 1000 to 10000 nM
  inhibition at 1 µM: 0 to 25%
MAGL [2]
  inhibition at 5 mg/kg: 0 to 25%

## CC(=O)Nc1ccn(C(=O)N2CCN(Cc3cc(OC4CCN(C5CC5)CC4)cc(C(F)(F)F)c3)CC2)n1 [Example 72, N-(1-(4-(3-(1-cyclopropylpiperidin-4-yloxy)-5-(trifluoromethyl)benzyl)piperazine-1-carbonyl)-1H-pyrazol-3-yl)acetamide]
MAGL [1]
  IC50: ≤ 100 nM
  inhibition at 1 µM: ≥ 75%
FAAH
  IC50: 1000 to 10000 nM
  inhibition at 1 µM: 0 to 25%
MAGL [2]
  inhibition at 5 mg/kg: 0 to 25%

## CC(=O)Nc1ccn(C(=O)N2CCN(Cc3ccc(Cl)cc3N3CCN(C(C)=O)CC3)CC2)n1 [Example 53, N-(1-(4-(2-(4-acetylpiperazin-1-yl)-4-chlorobenzyl)piperazine-1-carbonyl)-1H-pyrazol-3-yl)acetamide]
MAGL [1]
  IC50: ≤ 100 nM
  inhibition at 1 µM: ≥ 75%
FAAH
  IC50: 1000 to 10000 nM
  inhibition at 1 µM: 0 to 25%
MAGL [2]
  inhibition at 5 mg/kg: 0 to 25%

## CC(=O)Nc1ccn(C(=O)N2CCC3(CCCN3Cc3ccc(Cl)c(N4CCOCC4)c3)CC2)n1 [Example 103, N-(1-(1-(4-chloro-3-morpholinobenzyl)-1,8-diazaspiro[4.5]decane-8-carbonyl)-1H-pyrazol-3-yl)acetamide]
MAGL [1]
  IC50: ≤ 100 nM
  inhibition at 1 µM: ≥ 75%
FAAH
  IC50: 1000 to 10000 nM
  inhibition at 1 µM: 0 to 25%
MAGL [2]
  inhibition at 5 mg/kg: 0 to 25%

## CC(=O)Nc1ccn(C(=O)N2CCC3(CCCN3Cc3cc(OC4CCS(=O)(=O)CC4)cc(C(F)(F)F)c3)CC2)n1 [Example 88, N-(1-(1-(3-((1,1-dioxidotetrahydro-2H-thiopyran-4-yl)oxy)-5-(trifluoromethyl)benzyl)-1,8-diazaspiro[4.5]decane-8-carbonyl)-1H-pyrazol-3-yl)acetamide]
MAGL [1]
  IC50: ≤ 100 nM
  inhibition at 1 µM: ≥ 75%
FAAH
  IC50: 1000 to 10000 nM
  inhibition at 1 µM: 0 to 25%
MAGL [2]
  inhibition at 5 mg/kg: 0 to 25%
